Patent publication US7465743B2, “Pyrazolo[3,4-b]pyridine compounds, and their use as PDE4 inhibitors” (Glaxo Group Limited, priority 2004, dated 2008)

Experiments:
[1] = biological target: T1, PDE4B (human recombinant) (Homo sapiens, UniProt Q07343); test: Inhibition of PDE4B activity (radioactive SPA assay or IMAP FP assay); type: biochemical; conditions: specific Examples; for Selectivity (PDE4B/PDE5 EMR ratio, not log scale): ratio PDE4B vs PDE5, not log scale; for IC50: one reading or average of ca. 2-6 readings, read-out: PDE4B pIC50 (± about 0.5) (converted)
T1 construct: made in house
T1 sequence (Q07343 1-564 isoform Q07343-2): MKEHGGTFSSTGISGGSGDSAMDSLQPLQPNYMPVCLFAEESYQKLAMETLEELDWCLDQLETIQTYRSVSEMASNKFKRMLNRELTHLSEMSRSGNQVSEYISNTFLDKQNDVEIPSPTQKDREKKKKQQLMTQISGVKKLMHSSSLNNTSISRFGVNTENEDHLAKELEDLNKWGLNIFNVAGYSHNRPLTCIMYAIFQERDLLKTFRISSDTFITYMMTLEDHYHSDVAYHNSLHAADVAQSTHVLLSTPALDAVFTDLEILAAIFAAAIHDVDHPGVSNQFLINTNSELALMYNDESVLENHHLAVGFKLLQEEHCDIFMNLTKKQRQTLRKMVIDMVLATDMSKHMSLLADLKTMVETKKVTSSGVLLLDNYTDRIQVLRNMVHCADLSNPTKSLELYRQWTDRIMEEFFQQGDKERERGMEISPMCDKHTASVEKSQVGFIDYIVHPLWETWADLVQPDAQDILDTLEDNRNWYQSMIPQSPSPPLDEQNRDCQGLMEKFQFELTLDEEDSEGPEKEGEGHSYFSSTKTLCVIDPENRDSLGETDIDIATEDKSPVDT
Source text: Human recombinant PDE4B, in particular the 2B splice variant thereof (HSPDE4B2B), is disclosed in WO 94/20079 and also M. M. McLaughlin et al., “A low Km, rolipram-sensitive, cAMP-specific phosphodiesterase from human brain: cloning and expression of cDNA, biochemical characterisation of recombinant protein, and tissue distribution of mRNA”, J. Biol. Chem., 1993, 268, 6470-6476. For example, in Example 1 of WO 94/20079, human recombinant PDE4B is described as being expressed in the PDE-deficient yeast Saccharomyces cerevisiae strain GL62, e.g. after induction by addition of 150 uM CuSO4, and 100,000×g supernatant fractions of yeast cell lysates are described for use in the harvesting of PDE4B enzyme.
(§1) Inhibition of PDE 3, PDE 4B, PDE 4D, PDE 5 or PDE 6 Activity: Radioactive Scintillation Proximity Assay (SPA)
(§2) The ability of compounds to inhibit catalytic activity at PDE4B or 4D (human recombinant), PDE3 (from bovine aorta), PDE5 (human recombinant) or PDE6 (from bovine retina) is determined by Scintillation Proximity Assay (SPA) in 96-well format. Test compounds (as a solution in DMSO, preferably about 2 microliter (ul) volume of DMSO solution) are preincubated at ambient temperature (room temperature, e.g. 19-23° C.) in Wallac Isoplates (code 1450-514) with PDE enzyme in 50 mM Tris-HCl buffer pH 7.5, 8.3 mM MgCl2, 1.7 mM EGTA, 0.05% (w/v) bovine serum albumin for 10-30 minutes (usually 30 minutes). The enzyme concentration is adjusted so that no more than 20% hydrolysis of the substrate defined below occurs in control wells without compound, during the incubation. For the PDE3, PDE4B and PDE4D assays, [5′,8-^3H]Adenosine 3′,5′-cyclic phosphate (Amersham Pharmacia Biotech, code TRK.559; or Amersham Biosciences UK Ltd, Pollards Wood, Chalfont St Giles, Buckinghamshire HP8 4SP, UK) is added to give 0.05 uCi per well and ˜10 nM final concentration. For the PDE5 and PDE6 assays, [8-^3H]Guanosine 3′,5′-cyclic phosphate (Amersham Pharmacia Biotech, code TRK.392) is added to give 0.05 uCi per well and ˜36 nM final concentration. Plates containing assay mixture, preferably approx. 100 ul volume of assay mixture, are mixed on an orbital shaker for 5 minutes and incubated at ambient temperature for 1 hour. Phosphodiesterase SPA beads (Amersham Pharmacia Biotech, code RPNQ 0150) are added (˜1 mg per well) to terminate the assay. Plates are sealed and shaken and allowed to stand at ambient temperature for 35 minutes to 1 hour (preferably 35 minutes) to allow the beads to settle. Bound radioactive product is measured using a WALLAC TRILUX 1450 Microbeta scintillation counter. For inhibition curves, 10 concentrations (1.5 nM-30 uM) of each compound are assayed. Curves are analysed using ActivityBase and XLfit (ID Business Solutions Limited, 2 Ocean Court, Surrey Research Park, Guildford, Surrey GU2 7QB, United Kingdom) Results are expressed as pIC50 values.
Inhibition of PDE4B or PDE4D Activity: Fluorescence Polarisation (FP) Assay
The ability of compounds to inhibit catalytic activity at PDE4B (human recombinant) or PDE4D (human recombinant) is determined by IMAP Fluorescence Polarisation (FP) assay (IMAP Explorer kit, available from Molecular Devices Corporation, Sunnydale, Calif., USA; Molecular Devices code: R8062) in 384-well format. The IMAP FP assay is able to measure PDE activity in an homogenous, non-radioactive assay format. The FP assay uses the ability of immobilised trivalent metal cations, coated onto nanoparticles (tiny beads), to bind the phosphate group of Fl-AMP that is produced on the hydrolysis of fluorescein-labelled (Fl) cyclic adenosine mono-phosphate (Fl-cAMP) to the non-cyclic Fl-AMP form. […] Binding of Fl-AMP product to the beads (coated with the immobilised trivalent cations) slows the rotation of the bound Fl-AMP and leads to an increase in the fluorescence polarisation ratio of parallel to perpendicular light. Inhibition of the PDE reduces/inhibits this signal increase. […]

PDE5 (human recombinant) = PDE5 (human recombinant) (Homo sapiens, UniProt O76074); test: Inhibition of PDE5 activity (radioactive SPA assay); type: biochemical; conditions: specific Examples; one reading or average of ca. 2-6 readings; read-out: PDE5 pIC50 (± about 0.5) (converted)
Source text: Human recombinant PDE5 is disclosed in K. Loughney et al., “Isolation and characterisation of cDNAs encoding PDE5A, a human cGMP-binding, cGMP-specific 3′,5′-cyclic nucleotide phosphodiesterase”, Gene, 1998, 216, 139-147.
as §1, §2
Biological Data obtained for some of the Examples (PDE4B and/or PDE5 inhibitory activity, either as one reading or as an average of ca. 2-6 readings) are as follows, based on current measurements only. In each of the SPA and FP assays, absolute accuracy of measurement is not possible, and the readings given are accurate only up to about ±0.5 of a log unit, depending on the number of readings made and averaged: […]

[2] = test system: conscious ferret (emesis); test: In Vivo Assay 4: emetic episodes in the conscious ferret after oral PDE4 inhibitor; therapeutic index; design: species or system ferret (Mustela Pulorius Furo); conditions: p.o.
Procedure: (§3) In Vivo Assay 4. Evaluation of Therapeutic Index of Orally-administered PDE 4 inhibitors in the conscious ferret
(§4) PDE4 inhibitors are prepared for oral (p.o.) administration by dissolving in a fixed volume (1 ml) of acetone and then adding cremophor to 20% of the final volume. Acetone is evaporated by directing a flow of nitrogen gas onto the solution. Once the acetone is removed, the solution is made up to final volume with distilled water. LPS is dissolved in phosphate buffered saline.
Male ferrets (Mustela Pulorius Furo, weighing 1-2 kg) are transported and allowed to acclimatise for not less than 7 days. […]
(§5) PDE4 inhibitors are administered orally (p.o.), using a dose volume of 1 ml/kg. […] The animals are constantly observed and any emetic episodes (retching and vomiting) or behavioural changes are recorded. […]
(§6) Thirty minutes after oral dosing with compound or vehicle control, the ferrets are placed into sealed perspex containers and exposed to an aerosol of LPS (30 μg/ml) for 10 minutes. […] All emetic episodes and behavioural changes are recorded.
b) Emetic episodes—the number of vomits and retches are counted to determine the dose of PDE4 inhibitor that gives a 20% incidence of emesis (D20).
c) A therapeutic index (TI), using this assay, is then calculated for each PDE4 inhibitor using the following equation: […]

[3] = test system: LPS-induced pulmonary neutrophilia; test: In Vivo Assay 4: LPS-induced pulmonary neutrophilia in the conscious ferret; design: species or system ferret (Mustela Pulorius Furo); conditions: p.o.
Procedure: as §3, §4
Male ferrets (Mustela Pulorius Furo, weighing 1-2 kg) are transported and allowed to acclimatise for not less than 7 days. The diet comprises SDS diet C pelleted food given ad lib with Whiskers™ cat food given 3 times per week. […]
as §5, §6
Six hours after LPS exposure the animals are killed by overdose of sodium pentobarbitone administered intraperitoneally. […] From this, the total number of neutrophils in the BAL sample is determined. […]

Which “Selectivity (PDE4B/PDE5 EMR ratio, not log scale)” value [1] does the source give for CCCCNC(=O)c1cnc2c(cnn2CC)c1NCCCC [4-butylamino-1-ethyl-pyrazolo[3,4-b]pyridine-5-(N-butyl)carboxamide, reference compound] here?
The value was 2.

What about the IC50 [1] of the same compound?
The IC50 was 158 nM.

What about the IC50 (PDE5 (human recombinant)) of the same compound?
Its IC50 is 398 nM.

CCC(C)Nc1c(C(=O)Nc2ccccc2)cnc2c1cnn2C(C)C (stereo not drawn) [Comparative Example 61, reference compound] was tested. Which “Selectivity (PDE4B/PDE5 EMR ratio, not log scale)” value [1] did it give?
Its value is 21.

And the IC50 [1]?
Its IC50 is 200 nM.

And the IC50 (PDE5 (human recombinant))?
The IC50 was 5010 nM.

Which “Selectivity (PDE4B/PDE5 EMR ratio, not log scale)” value [1] does the source give for CCn1ncc2c(N[C@H](C)C(C)C)c(C(=O)NCc3ccccc3)cnc21 [Example 1, N-Benzyl-4-{[(1R)-1,2-dimethylpropyl]amino}-1-ethyl-1H-pyrazolo[3,4-b]pyridine-5-carboxamide] here?
Its value is 66.

What about the IC50 [1] of the same compound?
The IC50 was 15.8 nM.

And the IC50 (PDE5 (human recombinant))?
Its IC50 is 1000 nM.

With CCn1ncc2c(N[C@H](C)C(C)C)c(C(=O)Nc3ccc(F)cc3)cnc21 [Example 2, 4-{[(1R)-1,2-Dimethylpropyl]amino}-1-ethyl-N-(4-fluorophenyl)-1H-pyrazolo[3,4-b]pyridine-5-carboxamide] as the compound, how does the “Selectivity (PDE4B/PDE5 EMR ratio, not log scale)” value [1] read?
Its value is 135.

And the IC50 [1]?
Its IC50 is 63.1 nM.

And the IC50 (PDE5 (human recombinant))?
The IC50 was 7940 nM.

With CCn1ncc2c(N[C@@H](C)C(C)C)c(C(=O)NCc3ccccc3)cnc21 [Example 38, N-Benzyl-4-{[(1S)-1,2-dimethylpropyl]amino}-1-ethyl-1H-pyrazolo[3,4-b]pyridine-5-carboxamide] as the compound, how does the “Selectivity (PDE4B/PDE5 EMR ratio, not log scale)” value [1] read?
Its value is 501.

And the IC50 [1]?
Its IC50 is 20 nM.

And the IC50 (PDE5 (human recombinant))?
Its IC50 is 10000 nM.

What does the source list for CCn1ncc2c(N[C@@H](C)C(C)C)c(C(=O)Nc3ccc(F)cc3)cnc21 [Example 39, 4-{[(1S)-1,2-Dimethylpropyl]amino}-1-ethyl-N-(4-fluorophenyl)-1H-pyrazolo[3,4-b]pyridine-5-carboxamide]?
Selectivity (PDE4B/PDE5 EMR ratio, not log scale) [1]: ≧468; IC50 [1]: 63.1 nM; IC50 (PDE5 (human recombinant)): > 30200 nM

With CCC(CC)CNC(=O)c1cnc2c(cnn2CC)c1N[C@@H](C)C(C)C [Example 51, 4-{[(1S)-1,2-Dimethylpropyl]amino}-1-ethyl-N-(2-ethylbutyl)-1H-pyrazolo[3,4-b]pyridine-5-carboxamide] as the compound, how does the “Selectivity (PDE4B/PDE5 EMR ratio, not log scale)” value [1] read?
The value was 437.

What about the IC50 [1] of the same compound?
Its IC50 is 7.94 nM.

And the IC50 (PDE5 (human recombinant))?
Its IC50 is 3980 nM.

How did the “Selectivity (PDE4B/PDE5 EMR ratio, not log scale)” value [1] turn out when CCn1ncc2c(NC(C)(C)C)c(C(=O)NCc3ccccc3)cnc21 [Example 53, 4-(tert-Butylamino)-1-ethyl-N-benzyl-1H-pyrazolo[3,4-b]pyridine-5-carboxamide] was run?
Its value is 240.

And the IC50 [1]?
Its IC50 is 15.8 nM.

And the IC50 (PDE5 (human recombinant))?
Its IC50 is 3980 nM.

Which “Selectivity (PDE4B/PDE5 EMR ratio, not log scale)” value [1] does the source give for CCn1ncc2c(NC(C)(C)C)c(C(=O)Nc3ccc(F)cc3)cnc21 [Example 54, 4-(tert-Butylamino)-1-ethyl-N-(4-fluorophenyl)-1H-pyrazolo[3,4-b]pyridine-5-carboxamide] here?
The value was “≧309”.

What about the IC50 [1] of the same compound?
Its IC50 is 100 nM.

What about the IC50 (PDE5 (human recombinant)) of the same compound?
Its IC50 is > 30200 nM.

With CC[C@@H](C)Nc1c(C(=O)NCc2ccccc2)cnc2c1cnn2CC [compound 58, reference compound] as the compound, how does the IC50 [1] read?
Its IC50 is 15.8 to 63.1 nM.

What about the IC50 (PDE5 (human recombinant)) of the same compound?
The IC50 was 631 to 3160 nM.

For CC[C@H](C)Nc1c(C(=O)NCc2ccccc2)cnc2c1cnn2CC [compound 59, reference compound], which IC50 [1] is on record?
Its IC50 is 15.8 to 63.1 nM.

And the IC50 (PDE5 (human recombinant))?
Its IC50 is 631 to 3160 nM.

What does the source list for O=C(Nc1c(Cl)cncc1Cl)c1ccc(OC(F)F)c(OCC2CC2)c1 [roflumilast]?
D20 for emesis (dose that gives a 20% incidence of emesis) [2]: about 0.46 mg/kg; D50 for ferret neutrophilia (dose which gives 50% inhibition of LPS-induced pulmonary neutrophilia) [3]: about 0.42 mg/kg
